Test results reported in patent US20240239779A1, “HERBICIDAL COMPOUNDS” (SYNGENTA CROP PROTECTION AG, priority 2021, published 2024).

Key:
Type in all cases: in vivo
Conditions in all cases: 250 g/ha, evaluated after 13 days, 100=total damage to plant, 0=no damage to plant
IPOHE [1] = assay: Pre-emergence biological efficacy
Experimental: (§1) Seeds of weeds and/or crops were sown in standard soil in pots. After cultivation for one day under controlled conditions in a glasshouse (at 24/19° C., day/night; 16 hours light), the plants were sprayed with an aqueous spray solution derived from the formulation of the technical active ingredient in a small amount of acetone and a special solvent and emulsifier mixture referred to as IF50 (11.12% Emulsogen EL360 TM+44.44% N-methylpyrrolidone+44.44% Dowanol DPM glycol ether), to create a 50 g/l solution which was then diluted using 0.2% Genapol XO80 as diluent to give the desired final dose of test compound.
(§2) The test plants were then grown under controlled conditions in the glasshouse (at 24/18° C., day/night; 15 hours light; 50% humidity) and watered twice daily. After 13 days the test was evaluated (100=total damage to plant; 0=no damage to plant).

EPHHL [2] = assay: Pre-emergence biological efficacy
Experimental: as §1, §2

AMAPA [3] = assay: Pre-emergence biological efficacy
Experimental: as §1, §2

LOLPE [4] = assay: Pre-emergence biological efficacy
Experimental: as §1, §2

ECHCG [5] = assay: Pre-emergence biological efficacy
Experimental: as §1, §2

SETFA [6] = assay: Pre-emergence biological efficacy
Experimental: as §1, §2

IPOHE [7] = assay: Post-emergence biological efficacy
Experimental: as §1, with “14 days” for “one day”
(§3) The test plants were then grown under controlled conditions in the glasshouse (at 24/18° C., day/night; 15 hours light; 50% humidity)and watered twice daily. After 13 days the test was evaluated (100=total damage to plant; 0=no damage to plant).

ELEIN = assay: Post-emergence biological efficacy
Experimental: as §1, with “14 days” for “one day”
as §3

EPHHL [8] = assay: Post-emergence biological efficacy
Experimental: as §1, with “14 days” for “one day”
as §3

AMAPA [9] = assay: Post-emergence biological efficacy
Experimental: as §1, with “14 days” for “one day”
as §3

LOLPE [10] = assay: Post-emergence biological efficacy
Experimental: as §1, with “14 days” for “one day”
as §3

ECHCG [11] = assay: Post-emergence biological efficacy
Experimental: as §1, with “14 days” for “one day”
as §3

CHEAL = assay: Post-emergence biological efficacy
Experimental: as §1, with “14 days” for “one day”
as §3

SETFA [12] = assay: Post-emergence biological efficacy
Experimental: as §1, with “14 days” for “one day”
as §3

DIGSA = assay: Post-emergence biological efficacy
Experimental: as §1, with “14 days” for “one day”
as §3

CCOC(=O)C1(C)CC(c2nc(-n3c(=O)cc(C(F)(F)F)n(C)c3=O)c(F)cc2Cl)=NO1 (stereo not drawn) [Compound 14, ethyl 3-[3-chloro-5-fluoro-6-[3-methyl-2,6-dioxo-4-(trifluoromethyl)pyrimidin-1-yl]-2-pyridyl]-5-methyl-4H-isoxazole-5-carboxylate]
damage to plant, IPOHE (IPOHE [1]): 100 | damage to plant, EPHHL (EPHHL [2]): 100 | damage to plant, AMAPA (AMAPA [3]): 100 | damage to plant, LOLPE (LOLPE [4]): 90 | damage to plant, ECHCG (ECHCG [5]): 100 | damage to plant, SETFA (SETFA [6]): 100 | damage to plant, IPOHE (IPOHE [7]): 100 | damage to plant, ELEIN (ELEIN): 100 | damage to plant, EPHHL (EPHHL [8]): 100 | damage to plant, AMAPA (AMAPA [9]): 100 | damage to plant, LOLPE (LOLPE [10]): 100 | damage to plant, ECHCG (ECHCG [11]): 100 | damage to plant, CHEAL (CHEAL): 100 | damage to plant, SETFA (SETFA [12]): 100 | damage to plant, DIGSA (DIGSA): 100
